Earlier results on one compound are cited in patent publication US20170035783A1, “COMPOSITION FOR THE PREVENTION AND THERAPY OF TUMOR DISEASES” (SANOXSYS GMBH, priority 2014, published 2017).

The test system of this data set is breast cancer risk. Conditions: subcutaneous pellet, 2008-2010.

Take `C[C@]12CC[C@H]3[C@@H](CCC4=CC(=O)CC[C@@]43C)[C@@H]1CC[C@@H]2O` [testosterone alone, testosterone]: the “breast cancer risk in pre- and postmenopausal women” value was “reduce the breast cancer risk”.
